Activity calls are given as the source filed them. The calls are words filed in the database; no cut-off is given here.
Assays:
[1] = Dose normalized AUC (0 to inf) in Sprague-Dawley rat at 20 to 25 mg/kg, po measured up to 24 hrs by LC-MS/MS analysis; format: ADME, organism-based; settings: in vivo, dose 20-25 mg/kg
[2] = molecular target: T1, Aurora kinase B (Homo sapiens, UniProt Q96GD4); test: Inhibition of human recombinant full length GST-AURKB using tetra(-LRRASLG) peptide as substrate at 0.1 uM incubated for 20 mins by ATP Kinase Glo assay; format: biochemical; settings: Sf9
[3] = molecular target: T2, Aurora kinase A (Homo sapiens, UniProt O14965); test: Inhibition of recombinant GST-AURKA (residues Ser123 to Ser401) (unknown origin) expressed in Sf9 insect cells using tetra(-LRRASLG) peptide as substrate incubated for 90 mins by ATP Kinase Glo assay
T2 sequence (O14965 whole entry): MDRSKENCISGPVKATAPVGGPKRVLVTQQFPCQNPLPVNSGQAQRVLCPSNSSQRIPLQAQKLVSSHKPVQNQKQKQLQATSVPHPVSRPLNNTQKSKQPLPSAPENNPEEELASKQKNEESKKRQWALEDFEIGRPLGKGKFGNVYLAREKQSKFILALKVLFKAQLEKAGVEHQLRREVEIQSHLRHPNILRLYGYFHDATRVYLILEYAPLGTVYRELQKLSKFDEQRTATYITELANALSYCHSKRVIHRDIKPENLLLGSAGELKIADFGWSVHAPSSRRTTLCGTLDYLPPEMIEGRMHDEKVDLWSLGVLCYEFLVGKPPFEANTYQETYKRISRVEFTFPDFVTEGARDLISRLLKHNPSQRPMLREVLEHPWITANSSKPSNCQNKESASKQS

[4] = test system: NFS-60; test: Antiproliferative activity against mouse NFS-60 cells transfected with human ETV6-CSF1R assessed as reduction in cell viability measured after 72 hrs by MTS method; format: functional, cell-based; settings: NFS-60, 72 h
[5] = Clearance in Sprague-Dawley rat at 5 mg/kg, iv measured up to 24 hrs by LC-MS/MS analysis; format: ADME, organism-based; settings: in vivo
[6] = molecular target: T3, Macrophage colony-stimulating factor 1 receptor (Homo sapiens, UniProt P07333); test: Inhibition of human recombinant GST-CSF1R (residues L534 to C972) expressed in Sf9 insect cells using poly(Glu,Tyr) as substrate incubated for 20 mins by ATP Kinase Glo assay
[7] = Dose normalized AUC (0 to inf) in Sprague-Dawley rat at 5 mg/kg, iv measured up to 24 hrs by LC-MS/MS analysis; format: ADME, organism-based; settings: in vivo
[8] = Half life in Sprague-Dawley rat at 20 to 25 mg/kg, po measured up to 24 hrs by LC-MS/MS analysis; format: ADME, organism-based; settings: in vivo, dose 20-25 mg/kg
[9] = Tmax in Sprague-Dawley rat at 20 to 25 mg/kg, po measured up to 24 hrs by LC-MS/MS analysis; format: ADME, organism-based; settings: in vivo, dose 20-25 mg/kg
[10] = Volume of distribution at steady state in Sprague-Dawley rat at 5 mg/kg, iv measured up to 24 hrs by LC-MS/MS analysis; format: ADME, organism-based; settings: in vivo, read-out: Vdss
[11] = molecular target: T1, Aurora kinase B; test: Inhibition of human recombinant full length GST-AURKB using tetra(-LRRASLG) peptide as substrate incubated for 20 mins by ATP Kinase Glo assay; set-up: species or system Sf9
[12] = Dose normalized Cmax in Sprague-Dawley rat at 20 to 25 mg/kg, po measured up to 24 hrs by LC-MS/MS analysis; format: ADME, organism-based; settings: in vivo, dose 20-25 mg/kg
[13] = test system: BaF3; test: Antiproliferative activity against mouse BaF3 cells transfected with human ETV6-CSF1R assessed as reduction in cell viability measured after 72 hrs by MTS method; settings: BaF3, 72 h
[14] = Oral bioavailability in Sprague-Dawley rat at 20 to 25 mg/kg measured up to 24 hrs by LC-MS/MS analysis; format: ADME, organism-based; settings: in vivo, dose 20-25 mg/kg
[15] = Half life in Sprague-Dawley rat at 5 mg/kg, iv measured up to 24 hrs by LC-MS/MS analysis; format: ADME, organism-based; settings: in vivo
[16] = molecular target: T4, Aurora kinase A (Homo sapiens) (UniProt O14965); test: Inhibition of recombinant GST-AURKA (residues Ser123 to Ser401) (unknown origin) expressed in Sf9 insect cells using tetra(-LRRASLG) peptide as substrate at 1 uM incubated for 90 mins by ATP Kinase Glo assay
T4 sequence (whole entry): T2 sequence (O14965 whole entry)

[17] = test system: BMDM; test: Growth inhibition of CSF1-induced mouse BMDM cell assessed as inhibition of M2 like macrophage growth incubated for 3 days by WST-8 assay; settings: 72 h
[18] = test system: BMDM; test: Growth inhibition of CSF2-induced mouse BMDM cell assessed as inhibition of M1 like macrophage growth for 3 days by WST-8 assay; settings: 72 h
[19] = molecular target: Vascular endothelial growth factor receptor 2 (Homo sapiens, UniProt P35968); test: Inhibition of wild-type human partial length VEGFR2 (R787 to P1253 residues) expressed in mammalian expression system by Kinomescan method
[20] = molecular target: Serine/threonine-protein kinase PAK 3 (Homo sapiens, UniProt O75914); test: Inhibition of wild-type human full length PAK3 (M1 to R544 residues) expressed in bacterial expression system by Kinomescan method
[21] = molecular target: Mast/stem cell growth factor receptor Kit (Homo sapiens, UniProt P10721); test: Inhibition of human c-Kit by Kinomescan method
[22] = molecular target: Platelet-derived growth factor receptor alpha (Homo sapiens, UniProt P16234); test: Inhibition of wild-type human partial length PDGFRalpha (V575 to D1002 residues) expressed in mammalian expression system by Kinomescan method
[23] = molecular target: Platelet-derived growth factor receptor beta (Homo sapiens, UniProt P09619); test: Inhibition of wild-type human partial length PDGFRbeta (V582 to Y1009 residues) expressed in bacterial expression system by Kinomescan method
[24] = molecular target: T5, Receptor-type tyrosine-protein kinase FLT3 (Homo sapiens, UniProt P36888); test: Inhibition of wild-type human partial length FLT3 (V592 to Y969 residues) expressed in bacterial expression system by Kinomescan method
T5 sequence (P36888 whole entry): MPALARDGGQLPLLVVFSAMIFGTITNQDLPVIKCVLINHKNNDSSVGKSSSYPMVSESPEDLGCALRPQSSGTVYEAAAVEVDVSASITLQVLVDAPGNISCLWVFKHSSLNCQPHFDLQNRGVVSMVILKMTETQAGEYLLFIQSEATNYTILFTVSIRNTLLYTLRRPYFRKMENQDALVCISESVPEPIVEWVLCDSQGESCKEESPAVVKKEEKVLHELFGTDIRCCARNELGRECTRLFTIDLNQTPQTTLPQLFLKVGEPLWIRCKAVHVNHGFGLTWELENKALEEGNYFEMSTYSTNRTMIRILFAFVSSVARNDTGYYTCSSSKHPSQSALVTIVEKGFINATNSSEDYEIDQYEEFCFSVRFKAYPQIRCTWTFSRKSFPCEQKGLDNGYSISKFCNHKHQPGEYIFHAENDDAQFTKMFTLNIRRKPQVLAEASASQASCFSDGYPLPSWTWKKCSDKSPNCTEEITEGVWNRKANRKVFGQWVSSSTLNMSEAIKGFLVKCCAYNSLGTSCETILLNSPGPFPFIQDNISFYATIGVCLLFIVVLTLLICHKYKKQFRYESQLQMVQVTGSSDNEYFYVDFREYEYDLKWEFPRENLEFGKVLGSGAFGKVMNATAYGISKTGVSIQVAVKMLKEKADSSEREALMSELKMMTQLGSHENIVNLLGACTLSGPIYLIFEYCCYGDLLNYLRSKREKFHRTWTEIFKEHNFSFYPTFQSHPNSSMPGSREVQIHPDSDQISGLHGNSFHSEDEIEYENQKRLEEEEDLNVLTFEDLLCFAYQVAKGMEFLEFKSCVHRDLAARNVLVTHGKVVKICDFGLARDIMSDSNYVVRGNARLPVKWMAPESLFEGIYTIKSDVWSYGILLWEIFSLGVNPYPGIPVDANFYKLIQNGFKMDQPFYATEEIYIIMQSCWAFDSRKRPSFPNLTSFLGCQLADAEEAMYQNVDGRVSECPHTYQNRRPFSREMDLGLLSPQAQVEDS

[25] = molecular target: T1, Aurora kinase B; test: Inhibition of wild-type human partial length AURKB (D25 to A303 residues) expressed in mammalian expression system by Kinomescan method
[26] = molecular target: Epithelial discoidin domain-containing receptor 1 (Homo sapiens, UniProt Q08345); test: Inhibition of wild-type human partial length DDR1 (R565 to V876 residues) expressed in bacterial expression system by Kinomescan method
[27] = test system: Mus musculus; test: Immunomodulatory activity in mouse MC38 cells inoculated C57BL/6 mouse syngeneic model assessed as increase in cytotoxic CD8+ T cell to M2 like TAM ratio in tumor at 100 mg/kg, po twice a day for 2 weeks by five days on/two days off schedule relative to control; format: functional, organism-based; settings: MC-38
[28] = molecular target: T6, Macrophage colony-stimulating factor 1 receptor (Mus musculus) (UniProt P09581); test: Inhibition of CSF1R phosphorylation in mouse RAW264.7 cells by Western blotting analysis; format: cell-based
T6 sequence (whole entry): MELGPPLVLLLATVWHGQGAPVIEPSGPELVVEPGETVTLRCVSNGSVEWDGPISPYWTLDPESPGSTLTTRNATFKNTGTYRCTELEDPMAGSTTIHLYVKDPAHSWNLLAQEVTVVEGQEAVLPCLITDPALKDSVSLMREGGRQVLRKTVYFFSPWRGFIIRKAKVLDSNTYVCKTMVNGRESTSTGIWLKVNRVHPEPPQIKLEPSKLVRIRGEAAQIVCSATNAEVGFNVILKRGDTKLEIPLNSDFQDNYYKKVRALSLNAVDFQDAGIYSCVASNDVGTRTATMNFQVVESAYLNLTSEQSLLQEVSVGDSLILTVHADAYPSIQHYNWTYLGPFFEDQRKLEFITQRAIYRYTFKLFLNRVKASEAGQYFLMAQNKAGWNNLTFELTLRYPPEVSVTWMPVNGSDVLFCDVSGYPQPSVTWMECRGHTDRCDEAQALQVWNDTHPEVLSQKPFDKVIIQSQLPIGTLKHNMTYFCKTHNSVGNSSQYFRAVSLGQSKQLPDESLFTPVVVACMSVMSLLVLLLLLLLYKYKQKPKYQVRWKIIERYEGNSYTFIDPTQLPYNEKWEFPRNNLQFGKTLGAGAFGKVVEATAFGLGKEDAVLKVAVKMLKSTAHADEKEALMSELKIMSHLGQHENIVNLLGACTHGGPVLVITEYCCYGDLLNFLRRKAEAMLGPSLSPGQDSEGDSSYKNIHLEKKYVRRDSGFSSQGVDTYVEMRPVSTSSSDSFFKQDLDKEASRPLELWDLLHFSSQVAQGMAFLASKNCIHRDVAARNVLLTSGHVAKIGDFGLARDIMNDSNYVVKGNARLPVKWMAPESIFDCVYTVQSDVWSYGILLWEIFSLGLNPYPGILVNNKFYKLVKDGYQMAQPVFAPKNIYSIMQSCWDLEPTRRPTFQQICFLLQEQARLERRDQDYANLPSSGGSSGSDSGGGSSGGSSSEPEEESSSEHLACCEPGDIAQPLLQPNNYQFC

[29] = molecular target: T3, Macrophage colony-stimulating factor 1 receptor; test: Inhibition of CSF1R phosphorylation in human THP-1 cells by Western blotting analysis; format: cell-based
[30] = test system: Mus musculus; test: Immunomodulatory activity in mouse MC38 cells inoculated C57BL/6 mouse syngeneic model assessed as increase in M1 to M2 like TAM ratio in tumor at 100 mg/kg, po twice a day for 2 weeks by five days on/two days off schedule relative to control; format: functional, organism-based; settings: MC-38
[31] = test system: RAW264.7; test: Anti-inflammatory activity mouse RAW264.7 cells assessed as inhibition of LPS-induced TNFalpha production by ELISA; format: functional, cell-based

T1 sequence (Q96GD4 whole entry, the tested form may be a part): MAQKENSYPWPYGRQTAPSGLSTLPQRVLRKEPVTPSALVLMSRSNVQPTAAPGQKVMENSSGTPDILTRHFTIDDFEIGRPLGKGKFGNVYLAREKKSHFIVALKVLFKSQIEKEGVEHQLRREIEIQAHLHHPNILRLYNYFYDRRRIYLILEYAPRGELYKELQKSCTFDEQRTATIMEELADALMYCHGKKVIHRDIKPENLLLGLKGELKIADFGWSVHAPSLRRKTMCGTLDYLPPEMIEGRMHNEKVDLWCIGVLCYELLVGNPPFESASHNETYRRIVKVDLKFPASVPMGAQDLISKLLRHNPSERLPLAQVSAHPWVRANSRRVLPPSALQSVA
T3 sequence (P07333 whole entry, the tested form may be a part): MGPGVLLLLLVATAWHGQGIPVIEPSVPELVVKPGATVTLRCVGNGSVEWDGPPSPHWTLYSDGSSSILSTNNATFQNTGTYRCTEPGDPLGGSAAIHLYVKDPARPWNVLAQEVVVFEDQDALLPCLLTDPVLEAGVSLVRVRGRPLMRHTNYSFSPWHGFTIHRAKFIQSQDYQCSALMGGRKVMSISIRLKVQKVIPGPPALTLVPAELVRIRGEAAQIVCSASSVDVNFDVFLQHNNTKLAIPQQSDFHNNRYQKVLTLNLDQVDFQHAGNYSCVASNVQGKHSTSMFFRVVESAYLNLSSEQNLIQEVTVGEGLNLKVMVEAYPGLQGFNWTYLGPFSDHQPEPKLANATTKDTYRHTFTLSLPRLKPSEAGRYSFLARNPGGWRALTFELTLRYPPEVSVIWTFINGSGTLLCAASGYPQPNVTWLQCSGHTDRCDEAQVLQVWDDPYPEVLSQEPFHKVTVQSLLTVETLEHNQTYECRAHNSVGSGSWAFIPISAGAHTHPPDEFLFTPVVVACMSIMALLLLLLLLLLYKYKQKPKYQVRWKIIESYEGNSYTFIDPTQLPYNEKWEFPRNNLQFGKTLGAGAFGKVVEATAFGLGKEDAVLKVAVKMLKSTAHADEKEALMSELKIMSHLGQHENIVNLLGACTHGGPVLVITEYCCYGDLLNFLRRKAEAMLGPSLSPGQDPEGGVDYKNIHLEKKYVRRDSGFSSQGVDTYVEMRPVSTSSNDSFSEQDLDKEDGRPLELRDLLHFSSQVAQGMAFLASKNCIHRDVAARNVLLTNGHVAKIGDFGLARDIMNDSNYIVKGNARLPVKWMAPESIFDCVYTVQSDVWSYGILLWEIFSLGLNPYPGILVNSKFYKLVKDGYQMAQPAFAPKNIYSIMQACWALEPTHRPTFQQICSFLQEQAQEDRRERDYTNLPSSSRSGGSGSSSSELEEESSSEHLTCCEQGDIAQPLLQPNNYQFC
Chain of Platelet-derived growth factor receptor beta (P09619 whole entry, the tested form may be a part): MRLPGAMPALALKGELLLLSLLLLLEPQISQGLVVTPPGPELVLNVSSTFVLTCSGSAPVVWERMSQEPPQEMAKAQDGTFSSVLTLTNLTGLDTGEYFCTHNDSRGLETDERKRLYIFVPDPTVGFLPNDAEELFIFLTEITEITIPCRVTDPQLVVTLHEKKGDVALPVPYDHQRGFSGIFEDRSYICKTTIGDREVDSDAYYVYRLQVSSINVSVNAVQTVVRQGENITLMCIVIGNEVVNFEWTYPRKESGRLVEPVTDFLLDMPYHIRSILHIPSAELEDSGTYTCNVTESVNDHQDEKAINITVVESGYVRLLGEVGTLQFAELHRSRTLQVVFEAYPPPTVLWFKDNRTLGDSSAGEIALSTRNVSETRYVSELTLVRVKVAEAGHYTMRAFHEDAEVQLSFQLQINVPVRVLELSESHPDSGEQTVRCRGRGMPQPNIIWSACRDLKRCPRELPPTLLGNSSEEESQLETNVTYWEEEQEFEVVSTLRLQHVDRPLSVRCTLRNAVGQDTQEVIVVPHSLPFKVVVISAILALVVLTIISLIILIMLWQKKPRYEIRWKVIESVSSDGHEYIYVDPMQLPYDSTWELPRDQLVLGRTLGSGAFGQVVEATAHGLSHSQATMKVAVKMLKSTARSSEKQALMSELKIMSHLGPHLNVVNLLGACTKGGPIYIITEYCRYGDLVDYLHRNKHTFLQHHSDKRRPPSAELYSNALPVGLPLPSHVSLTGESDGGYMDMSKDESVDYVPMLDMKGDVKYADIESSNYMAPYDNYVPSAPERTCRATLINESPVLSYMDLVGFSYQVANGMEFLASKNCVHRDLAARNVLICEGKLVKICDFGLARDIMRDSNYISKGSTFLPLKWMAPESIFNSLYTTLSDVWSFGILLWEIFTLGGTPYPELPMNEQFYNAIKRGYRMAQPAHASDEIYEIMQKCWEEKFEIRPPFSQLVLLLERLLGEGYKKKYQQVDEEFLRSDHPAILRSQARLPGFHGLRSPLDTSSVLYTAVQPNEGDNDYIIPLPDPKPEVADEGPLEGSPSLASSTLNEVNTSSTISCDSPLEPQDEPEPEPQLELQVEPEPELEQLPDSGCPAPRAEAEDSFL
Chain of Epithelial discoidin domain-containing receptor 1 (Q08345 whole entry, the tested form may be a part): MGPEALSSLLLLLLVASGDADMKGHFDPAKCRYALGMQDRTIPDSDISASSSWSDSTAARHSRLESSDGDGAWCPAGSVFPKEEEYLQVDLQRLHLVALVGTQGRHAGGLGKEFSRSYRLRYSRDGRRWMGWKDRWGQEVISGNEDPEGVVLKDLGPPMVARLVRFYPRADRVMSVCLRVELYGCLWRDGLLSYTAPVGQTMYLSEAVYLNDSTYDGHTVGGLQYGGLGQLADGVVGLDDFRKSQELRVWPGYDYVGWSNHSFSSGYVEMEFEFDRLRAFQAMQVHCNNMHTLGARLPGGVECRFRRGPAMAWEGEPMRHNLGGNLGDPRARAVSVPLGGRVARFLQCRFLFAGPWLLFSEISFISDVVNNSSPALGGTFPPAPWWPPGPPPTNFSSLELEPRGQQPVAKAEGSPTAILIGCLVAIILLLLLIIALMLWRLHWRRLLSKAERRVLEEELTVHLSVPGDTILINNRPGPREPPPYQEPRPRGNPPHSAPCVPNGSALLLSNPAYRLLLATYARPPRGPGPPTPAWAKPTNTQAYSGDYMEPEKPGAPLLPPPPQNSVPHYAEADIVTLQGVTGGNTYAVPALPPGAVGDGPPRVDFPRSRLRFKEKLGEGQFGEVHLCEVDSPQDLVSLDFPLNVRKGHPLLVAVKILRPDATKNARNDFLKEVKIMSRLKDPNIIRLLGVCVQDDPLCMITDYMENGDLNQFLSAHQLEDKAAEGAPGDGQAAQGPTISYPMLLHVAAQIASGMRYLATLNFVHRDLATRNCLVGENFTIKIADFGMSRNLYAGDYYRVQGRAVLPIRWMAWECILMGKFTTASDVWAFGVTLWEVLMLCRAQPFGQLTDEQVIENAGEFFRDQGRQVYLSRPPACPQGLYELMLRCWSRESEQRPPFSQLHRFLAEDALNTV
Chain of Vascular endothelial growth factor receptor 2 (P35968 whole entry, the tested form may be a part): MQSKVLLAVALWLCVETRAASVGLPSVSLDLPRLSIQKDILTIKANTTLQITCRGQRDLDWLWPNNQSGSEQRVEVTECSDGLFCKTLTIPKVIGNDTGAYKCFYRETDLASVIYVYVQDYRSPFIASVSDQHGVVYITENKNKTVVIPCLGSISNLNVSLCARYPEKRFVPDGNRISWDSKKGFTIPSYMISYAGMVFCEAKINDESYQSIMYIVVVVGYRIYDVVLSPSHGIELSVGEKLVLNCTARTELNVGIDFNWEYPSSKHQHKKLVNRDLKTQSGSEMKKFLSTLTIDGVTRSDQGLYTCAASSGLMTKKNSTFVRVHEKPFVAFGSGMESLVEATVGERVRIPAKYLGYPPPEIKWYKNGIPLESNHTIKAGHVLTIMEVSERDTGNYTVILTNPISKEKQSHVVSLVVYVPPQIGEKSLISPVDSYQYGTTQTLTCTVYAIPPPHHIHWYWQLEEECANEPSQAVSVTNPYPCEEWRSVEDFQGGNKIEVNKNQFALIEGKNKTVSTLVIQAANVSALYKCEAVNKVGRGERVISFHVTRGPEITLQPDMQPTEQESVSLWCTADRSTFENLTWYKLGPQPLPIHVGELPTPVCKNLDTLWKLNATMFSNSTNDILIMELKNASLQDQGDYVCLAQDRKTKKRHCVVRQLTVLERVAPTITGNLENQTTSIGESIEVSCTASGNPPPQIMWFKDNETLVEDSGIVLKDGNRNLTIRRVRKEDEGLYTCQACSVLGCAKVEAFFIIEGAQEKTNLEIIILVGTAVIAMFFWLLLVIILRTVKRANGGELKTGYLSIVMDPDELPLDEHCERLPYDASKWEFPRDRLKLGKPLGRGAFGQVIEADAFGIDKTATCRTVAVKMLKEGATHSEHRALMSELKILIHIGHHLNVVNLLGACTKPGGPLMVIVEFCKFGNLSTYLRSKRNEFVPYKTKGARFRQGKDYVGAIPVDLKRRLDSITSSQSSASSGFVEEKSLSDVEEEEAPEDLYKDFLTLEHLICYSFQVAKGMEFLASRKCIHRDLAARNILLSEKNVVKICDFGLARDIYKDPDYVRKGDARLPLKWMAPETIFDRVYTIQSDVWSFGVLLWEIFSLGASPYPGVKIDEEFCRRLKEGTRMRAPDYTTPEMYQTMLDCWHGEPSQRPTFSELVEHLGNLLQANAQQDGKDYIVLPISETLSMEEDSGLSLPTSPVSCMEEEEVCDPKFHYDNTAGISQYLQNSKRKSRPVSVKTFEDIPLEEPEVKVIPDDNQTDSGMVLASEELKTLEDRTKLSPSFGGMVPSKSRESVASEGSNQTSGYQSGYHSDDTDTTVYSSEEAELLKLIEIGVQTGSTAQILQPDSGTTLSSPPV

Row | AUCt/dose [1] [ng.hr/mL per mg/kg] | inhibition [2] [%] | IC50 [3] [nM] | clearance [5] [mL/min/kg] | IC50 [6] [nM] | AUCt/dose [7] [ng.hr/mL per mg/kg] | half-life [8] [h] | Tmax [9] [h] | Vd [10] [L/kg] | IC50 [11] [nM] | Cmax/dose [12] [ng/mL] | EC50 [13] [nM] | bioavailability [14] [%] | half-life [15] [h] | inhibition [16] [%] | SMILES | EC50 [4] [nM] | IC50 [17] [nM] | IC50 [18] [nM] | other results
1 | 91 | 34 | > 10000 | 5.6 | 14.1 | 2842 | 4 | 2.7 | 0.7 | 22.2 | 10.6 | 23 | 3.2 | 1.6 | 23 | COc1ccc(NC(=O)Nc2ccc(Oc3ncnc4cc(N(C)C)ccc34)cc2)cc1 | 23 | – | – | –
2 | – | – | – | – | – | – | – | – | – | 643 | – | 200 | – | – | 63 | FC(F)(F)c1ccc(CNc2ccc(Cc3c[nH]c4ncc(Cl)cc34)cn2)cn1 [PEXIDARTINIB] | 294 | 56 | > 10000 | –
3 | – | – | > 10000 | 4.5 | 14.4 | – | 8.7 | 5.5 | 0.6 | 1400 | 24 | 80 | 10 | 2.9 | – | CN(C)c1ccc2c(Oc3ccc(NC(=O)NCc4ccc(C(F)(F)F)nc4)cc3)ncnc2c1 [listing 1 of 2 here] | 95 | 31 | 5390 | IC50 [19]: > 9000 nM; IC50 [20]: > 9000 nM; IC50 [21]: 1.1 nM; IC50 [22]: 52.7 nM; IC50 [23]: 31.5 nM; IC50 [24]: 64.3 nM; IC50 [25]: 226 nM; IC50 [26]: 59.7 nM
4 | – | 16 | – | – | – | – | – | – | – | – | – | – | – | – | 7 | CN(C)c1ccc2c(Oc3ccc(NC(=O)NCc4ccc(C(F)(F)F)nc4)cc3)ncnc2c1 [listing 2 of 2 here] | – | – | – | Activity [27]: Active; inhibition [28]: Dose-Dependent Effect; inhibition [29]: Dose-Dependent Effect; Activity [30]: Active; inhibition [31]: Active
5 | 89 | 27 | > 10000 | 12.2 | 8.3 | 1225 | 24.2 | 0.5 | 1.4 | – | 56 | 46 | 7.3 | 3.3 | 5 | CN(C)c1ccc2c(Oc3ccc(NC(=O)NCc4ccc(F)cc4)cc3)ncnc2c1 | 69 | – | – | –

Reference: ChEMBL document CHEMBL4842383 (J Med Chem, 2021)
